Reference: patent US5709816A, “Singlet oxygen quenchers and external compositions containing the same” (Kao Corporation, priority 1899, dated 1998)

How the values were obtained:
[1] = tested on: skin of hairless mice; assay: Inhibition of wrinkle formation in hairless mice (visual wrinkle index); format: in vivo, hairless mouse (HR/ICR); conditions: 5 wt. % in ethanol, 80 μl; UV-B five times per week, sixteen weeks; scale 1 (no wrinkles) to 4; control (ethanol) 3.78 ± 0.08
Method: (1) Inhibition of wrinkle formation in hairless mice.
(§1) To each hairless mouse (HR/ICR, 6 weeks old when the test started), a test substance (5 wt. %, in ethanol) was applied. (80 μl). Approximately 10 minutes later, UV-B was irradiated thereto using 6 bulbs of health lamps (SL20-SLE, Toshiba) so that the dose per irradiation was not greater than 1 MED. Irradiation was repeated five times per week over sixteen weeks. While the irradiation energy was measured using a UV-radiometer (UVR-305/S65D, Tokyo Optical K.K.) so that the dose per irradiation was not greater than 1 MED, energy was irradiated at an intensity of 0.28 mW/cm^2, with the total dose. 100 mJ/cm^2. As a control, a case where only ethanol was applied was similarly tested in a manner performed on the test substances.
After completion of the testing, the level of wrinkle formation was visually determined using the following standards (wrinkle indices).
1: No wrinkles are formed
2: Small amounts of wrinkles are formed
3: Moderate amounts of wrinkles are formed
4: Considerable amounts of wrinkles are formed

[2] = tested on: skin of hairless mice; assay: Analysis of wrinkles in hairless mice (image analysis of skin replicas); format: in vivo, hairless mouse (HR/ICR); conditions: 5 wt. % in ethanol, 80 μl; UV-B sixteen weeks; shadow area of skin replicas, 30°; control (ethanol) 6.46 ± 0.68
Method: as §1
In order to analyze the wrinkles formed in the above step (1) in detail, replicas of different skin areas (3 replicas per mouse) each having a round shape with a diameter of 1 cm were obtained using a hydrophilic exaflex, hydrophilic vinyl silicone imaging agent. Each replica was placed horizontally and lightened from an angle of 30°. The area of shadows formed by wrinkles was analyzed as the area ratio using an image analyzing apparatus.

[3] = tested on: skin of white guinea pigs; assay: Inhibition of erythema formation (UV-A/UV-B irradiation); format: in vivo; conditions: Cavia porcellus, light or radiation study, topical; 5 wt. % in ethanol; UV-A/UV-B 40 J/cm^2; determined after 1 day and 2 days; read-out: Erythema inhibition rate
Excerpt: Inhibition of erythema formation
The hair of white guinea pigs (8 weeks old, female) hair was removed by shaving, and an ethanol solution containing a test substance (5 wt. %) was applied to the shaved part of each animal. A mixture of UV-A/UV-B (40 J/cm^2, measured at 365 nm using a UV-radiometer UVR-305/365-D, Torex Co.) was irradiated onto the back of each guinea pig using a solar simulator Model 1600 (Solar Light Co.). After 1 day and 2 days of irradiation, the erythema formation was visually determined by the standards of the Japanese Dermatological Association to obtain erythema inhibition ratios.

[4] = tested on: sunburn cells in skin of ICR/HR mice; assay: Inhibition of sunburn cell formation (UV-B irradiation); format: in vivo; conditions: 1 wt. % in ethanol, UV-B 100 mJ/cm^2, 24 hours later; for inhibition in vivo at 1 %: Mus musculus, light or radiation study, topical, read-out: Inhibition ratio regarding sunburn cell formation
Excerpt: Inhibition of sunburn cell formation
Ethanol solution of a test substance (1 wt. %) was applied onto the skin of ICR/HR mice. UV-B (100 mJ/cm^2) was irradiated onto the skin (health lamp SE20/SLE, Toshiba). Twenty-four hours later, the skin was biopsied and stained using hematoxylin & eosin, after which the number of sunburn cells were counted under microscope.

[5] = tested on: skin of colored guinea pigs; assay: Inhibition of delayed darkening (UV-A/UV-B irradiation); format: in vivo; conditions: 7 wt. % in ethanol; UV-A/UV-B 50 J/cm^2; 14 days after irradiation; color difference meter
Method: Inhibition of delayed darkening
The hair of colored guinea pigs (8 week old, female) hair was removed, and an ethanol solution containing a test substance (7 wt. %) was applied to the skin. A mixture of UV- A/UV-B rays (50 J/cm^2, measured at 365 nm using a UV-radiometer UVR-305/365-D, Torex Co.) was irradiated onto the back of each guinea pig using a solar simulator. Fourteen days after irradiation, delayed darkening inhibition ratios were measured using a color difference meter (Model 1001P. Nippon Kogyo Co., Ltd.).

[6] = Quenching rate constant of singlet oxygen (Rose Bengal photosensitization, Stern-Volmer method); format: biochemical; conditions: for weakening of the 1,270 nm singlet oxygen emission peak with increasing quencher concentration: 50 μM ethanol solution of Rose Bengal, 490-590 nm irradiation
Excerpt: Method for measuring the quenching rate constant of singlet oxygen:
The apparatus used for measuring singlet oxygen included the following parts.
(1) Light source: Xenon lamp (150 W) (Atago Bussan K.K.)
(2) Filters on the excitation side: Water filter (optical path: 50 mm), Color glass filters (HA-15, HA-30, G-533, manufactured by Hoya K.K.)
(3) Sample: Square quartz cell (2×10×50 mm)
(4) Filters on the detection side: Color glass filter (IR-85, manufactured by Hoya K.K.), Interference filter (Nippon Shinku-Kogaku K.K.)
(5) Spectrometer and detector: Spectrometer (HR-320, Jovin Yvon Co.), Germanium (Ge) detector (EO-817L, a type using liquid nitrogen as a coolant, North coast Scientic Corporation)
(6) Amplifier: Light chopper (5584, NF Co.), Frequency filter (E-3201B, NF Co.), Super low noise amplifier (SA-200F3, NF Co.), Digital storage oscilloscope (2431L, SONY Tektronix Co.)
(7) Recording section: Personal computer (PC-9801 BA, NEC Corporation), GP-IB interface
(8) Oxygen concentration control unit: High-pressure oxygen cylinder
Using this apparatus, light was irradiated onto a system which is known to produce singlet oxygen through photochemical sensitization. The wavelength of the light was within an appropriate absorption range of the photosensitizer employed. weak emission in the near infrared region, which is specific to singlet oxygen, was measured for its intensity I. Subsequently, the emission obtained when a test substance was added to the same system was measured. From the decrease in emission intensity I, the quenching rate constant of singlet oxygen of the test substance could be measured in accordance with the Stern-Volmer method. However, since some substances react with the photochemical sensitization system to cause errors in the measurements, the method described by R. H. Young et al., Photochem. Photobiol., vol. 17, p. 233 (1973) was applied to correct this contribution quenching.
A 50 μM ethanol solution of Rose Bengal in a 400 μl square quartz cell was used as a test substance.
First, the light within 490-590 nm, which is appropriate for the maximum absorption wavelength of Rose Bengal, was irradiated onto the cell containing the test substance.
Similarly, another system was subjected to measurement in which a typical singlet oxygen quencher, β-carotene, sodium azide,or 1,4-diazabicyclo[2.2.2]octane, had been added.
Measurement of the quenching rate constant of singlet oxygen: An ethanol solution of each of compounds obtained in the above-described Synthesis Examples and N-phenyldiethanolamine (compound (36)), with Rose Bengal, as a conventional photosensitizer, was used for the measurement of the quenching rate constants of singlet oxygen.
First, emission intensity I of a mixture solution containing 50 μM of Rose Bengal and the above compounds were measured under saturated air conditions. The ratio IOair /Iair was calculated, wherein Iair represents the emission intensity measured for a solution with a test substance at a concentration of Cq (Iair), and Oair represents the emission intensity measured for a solution without test substance. Next, under saturated oxygen conditions, emission intensity was measured for a solution with a test substance at the same concentration Cq (I302). Using these emission intensities, the correction term Fair was obtained in accordance with the following equation.
Interference attributed to the test substance with respect to the photosensitization reaction system was corrected by multiplying IOair /Iair by Fair.
Using the following equation:
(IOair /Iair)'=1+kq ·.tau.·Cq

[7] = tested on: dopachrome formation from dopa; assay: Inhibition of immediate pigment darkening (dopachrome formation from dopa, porphyrin + UV); format: biochemical; conditions: 0.5 wt. % in ethanol; dopa 1 mM, porphyrin 5 mM; UV-A/UV-B 3 J/cm^2; absorption at 475 nm
Method: Inhibition of immediate pigment darkening
An ethanol solution containing a test substance (0.5 wt. %) was added to a mixture of dopa (1 mM) and porphyrin (5 mM). A mixture of UV-A/UV-B (3 J/cm^2, measured at 365 nm) was irradiated onto the resultant mixture using a solar simulator. The amount of dopachrome formed by irradiation was determined by measuring absorption at 475 nm.

[8] = tested on: collagen; assay: Inhibition of protein denaturation (collagen crosslinking, porphyrin + UV); format: biochemical; conditions: 0.1 wt. % in ethanol; collagen 0.5 mg/ml, porphyrin 100 mM; UV-A/UV-B 3 J/cm^2; SDS-PAGE
Method: Inhibition of protein denaturation
An ethanol solution containing a test substance (0.1 wt. %) was added to a mixture of collagen (0.5 mg/ml) and 2 porphyrin (100 mM). A mixture of UV-A/UV-B (3 J/cm^2, measured at 365 nm) was irradiated onto the resultant mixture using a solar simulator. The irradiated mixture was applied to SDS-PAGE electrophoresis, and collagen crosslinking inhibition ratios were measured.

[9] = tested on: cultured human fibroblasts; assay: Inhibition of lipid peroxide formation in cultured human fibroblasts (TBA method); format: cell-based; conditions: 0.01 wt. % in ethanol, 100 mM porphyrin; for inhibition at 0.01 wt%: Homo sapiens, Fibroblast, light or radiation study, UV-A/UV-B 1 J/cm^2, read-out: Inhibition ratio regarding lipid peroxide formation
Method: Inhibition of lipid peroxide formation
Cultured human fibroblasts were combined with 100 mM porphyrin and a test substance (0.01 wt. %, in ethanol). A mixture of UV-A/UV-B rays (1 J/cm^2, measurements performed at 365 nm) was irradiated onto the resultant cell culture using a solar simulator. The fibroblasts were collected after the trypsin treatment, then extracted hydrophobic substances using acetone. The extracted substances were dried under nitrogen to prepare cellular lipid samples. A TBA method was used to measure lipid peroxides in cells and inhibition ratio by a test substance.

[10] = tested on: E. coli vector pUC119 DNA; format: biochemical; conditions: 0.01 wt. % in ethanol; 100 mM porphyrin; UV-A/UV-B 3 J/cm^2; agarose gel electrophoresis
Method: To a mixture of […] E. coli vector pUC119 DNA and 100 mM porphyrin, an ethanol solution containing a test substance (0.01 wt. %) was added. A mixture of UV-A/UV-B (3 J/cm^2, measured at 365 nm) was irradiated onto the resultant DNA mixture using a solar simulator. A 2.5-fold amount of ethanol and a 0.1-fold amount of 5M sodium acetate were added and the DNA was precipitated. The DNA pellet was dissolved in a TE buffer, and analyzed through agarose gel electrophoresis. Inhibition of DNA single strand breaks formation was measured.

[11] = tested on: skin of ICR/HR mice; assay: Inhibition of wrinkle formation in the skin of mice (UV-B, 16 weeks); format: in vivo, ICR/HR mouse; conditions: 1 wt. % in ethanol, 1 MED UV-B five times per week over sixteen weeks; for inhibition in vivo at 1 %: Mus musculus, topical, 2688 h
Excerpt: Inhibition of wrinkle formation in the skin of mice
To the back of each ICR/HR mouse (female, 6 weeks old), an ethanol solution containing a test substance (1 wt. %) was applied. One (1) MED of UV-B was irradiated thereto using a health lamp SL20-SLE (Toshiba). Irradiation was repeated five times per week over sixteen weeks. Wrinkle formation was visually scored using the following five rankings.
1: Mild and questionable wrinkles are observed
2: Mild but clear and definite wrinkles are observed
3: Moderate wrinkles are observed
4: Severe wrinkles are observed
Using the above rankings, wrinkle formations were scored and the inhibition ratios were determined by the division by the blank score.

Row | SMILES | ΔΔL value [5] | weakening of the 1,270 nm singlet oxygen emission peak with increasing quencher concentration [6] | Inhibition ratio regarding immediate blackening [7] | Protein denaturation inhibition ratio [8] | Prevention of DNA damage [10] | inhibition at 0.01 wt% [9] | further results
1 | COc1ccc(N(Cc2ccc(C)o2)Cc2ccc(C)o2)cc1OC [Compound (27), N,N-bis(5-methylfurfuryl)-3,4-dimethoxyphenylamine] | – | – | – | – | – | – | Wrinkle index [1]: 2.22 ± 0.17; Area ratio of image analysis [2]: 3.73 ± 0.29%
2 | COC(=O)C=Cc1ccc(OC)cc1 [Comparative compound (1), Methyl p-methoxycinnamate, reference compound] | 0.9 | – | – | – | – | – | inhibition in vivo at 5 % [3]: 31%; inhibition in vivo at 1 % [4]: 37%
3 | [N-]=[N+]=[N-].[Na+] [Comparative compound (4), Sodium azide, reference compound] | – | the peak at 1,270 nm weakened | 48% | 45% | 53% | – | Inhibition ratio regarding lipid peroxide formation ([9]; UV-A/UV-B 1 J/cm^2): 37; Inhibition of wrinkle formation [11]: 28%
4 | C1CN2CCN1CC2 [1,4-diazabicyclo[2.2.2]octane, reference compound] | – | the peak at 1,270 nm weakened | – | – | – | – | –
5 | OCCN(CCO)c1ccccc1 [Compound (36), N-phenyldiethanolamine] | 1.2 | – | 64% | 69% | 58% | 46% | Extinction rate constant of singlet oxygen ([6]; kq, ethanol solution, 50 μM Rose Bengal, singlet oxygen lifetime taken as 10 μs): 5.8e+07 M⁻¹ s⁻¹; inhibition in vivo at 5 % [3]: 48%; inhibition in vivo at 1 % [4]: 62%
6 | CC1=C(/C=C/C(C)=C/C=C/C(C)=C/C=C/C=C(C)/C=C/C=C(C)/C=C/C2=C(C)CCCC2(C)C)C(C)(C)CCC1 [β-carotene, reference compound] | – | the peak at 1,270 nm weakened | – | – | – | – | –
7 | O=C1O[C@H]([C@@H](O)CO)C(O)=C1O [Comparative compound (5), Ascorbic acid, reference compound] | – | – | 42% | – | 21% | 43% | inhibition in vivo at 1 % [11]: 11%
8 | Cc1c(C)c2c(c(C)c1O)CCC(C)(CCCC(C)CCCC(C)CCCC(C)C)O2 (stereo not drawn) [Comparative compound (6), α-Tocopherol, reference compound] | – | – | – | 30% | 34% | 42% | inhibition in vivo at 1 % [11]: 34%
9 | [Cl][Cd][Cl] [Comparative compound (2), Cadmium chloride, reference compound] | – | – | – | – | – | – | Inhibition ratio regarding sunburn cell formation [4]: 67%
10 | Oc1ccc(O)cc1 [Comparative compound (3), Hydroquinone, reference compound] | 0.7 | – | – | – | – | – | –
